# Assay results: PubChem BioAssay AID2305 (GlaxoSmithKline (GSK), 2010)
# System: P. falciparum 3D7 growth, pLDH absorbance
# Assay: blood-stage malaria parasite growth potency – strain 3D7, dose response (AID 2305)
row,SMILES,IC50 [nM]
1,Cc1[nH]c(C)c(-c2ccc(-c3ccccc3F)nc2)c(=O)c1Cl,250
2,O=C(/C=C/c1ccc(Cl)c(Cl)c1)NCCCCCN1CCC(NC(=O)Nc2cccc(F)c2)CC1,770
3,COc1ccccc1CC1CCCN(C2CCC(NC(=O)c3cc4ccccc4[nH]3)CC2)C1 (stereo unspecified),840
4,CCCC(C)Nc1nc(C)cc(NCCC(=O)Nc2ccc(OC)cc2)n1 (stereo unspecified),1380
5,CCOc1ccc(-c2nonc2NC(=O)c2ccccc2OC)cc1OCC,240
6,O=S(=O)(Nc1cccc(F)c1CNCc1ccccn1)c1ccc(Cl)c(Cl)c1,890
7,Cc1cc(NC(=O)c2cccs2)ccc1OC1CCN(Cc2ccccc2)CC1,870
8,CCOc1cc(C(=O)Nc2cccnc2)cc(Br)c1OCCC(C)C,1080
9,CCCCCCCNCc1c(O)ccc2c(CNCCCCCCC)c(O)ccc12,150
10,O=C(/C=C/c1ccc(Cl)c(Cl)c1)N1CCC(CN2CCC(c3nc4ccccc4n3CCCO)CC2)CC1,840
11,COc1ccc(F)cc1-c1ccc(C(=O)N2CCCN(c3ccc(C#N)cn3)CC2)cc1,110
12,COc1cc2c(cc1CCNCCCCNCCc1cc3c(cc1OC)CCCC3)CCCC2,1000
13,COc1ccc2nccc([C@@H](O)CN3CCC(NCC(O)Cc4ccccc4)CC3)c2c1 (stereo partly specified),670
14,CCOc1cc(C)ccc1C1CCN(CCCCNC(=O)c2cnc(-c3ccc(C(F)(F)F)cc3)[nH]2)CC1,770
15,O=C(NCc1cccc2ccccc12)c1ccc(CNC2CCN(Cc3ccccc3)CC2)cc1,840
16,Nc1nccc2ccc(-c3ccsc3)cc12,330
17,COc1ccc2nccc(N3CCC(NCc4ccc5c(n4)NC(=O)CS5)CC3)c2n1,860
18,CCCCCCCCCC(=O)NCC1CC(Br)=NO1 (stereo unspecified),1050
19,CN1CCC(N(Cc2ccc(-c3cnc(NCc4ccccc4)nc3)cc2)S(=O)(=O)c2ccccc2)CC1,780
20,Oc1ccc(CCNCCCCCCNCCc2ccc(Cl)cc2)c(Cl)c1O,780
21,Cc1cc(OCc2ccccc2)c(OCc2ccccc2)cc1C(O)CN(C)Cc1ccccc1 (stereo unspecified),810
22,NC(=NCC1CC1c1ccccc1)c1cccc(C(N)=NCC2CC2c2ccccc2)n1 (stereo unspecified),1760
23,COc1cc2c(cc1OC)-c1cc(=Nc3c(C)cc(C)cc3C)n(C)c(=O)n1CC2,1110
24,CNC(=O)COc1ccc(Nc2nnc(-c3ccc(C)c(S(=O)(=O)NCC4CCCO4)c3)c3ccccc23)cc1 (stereo unspecified),930

row,SMILES,IC50 [nM]
1,FC(F)(F)c1ccc2nc(-c3ccc(-c4ccc(CNCc5cnn(-c6ccccc6)n5)cc4)s3)[nH]c2c1,460
2,Cc1cccc2[nH]c(-c3cccc(-c4cccc(NC(=O)c5ccncc5)c4)c3)nc12,240
3,COc1cccc(CC(=O)NC2CCN(c3ccnc4cc(Cl)ccc34)C2)c1 (stereo unspecified),700
4,O=C(CCCCCc1ccccc1)NC1CCC(CN2CCC(c3c[nH]c4ccccc34)CC2)CC1 (stereo unspecified),1140
5,O=C(Nc1ccc(OC2CCN(Cc3ccccc3)CC2)c(Cl)c1)c1cccs1,310
6,O=C(Cc1cccs1)NCC(c1ccccc1Cl)c1c[nH]c2ccccc12 (stereo unspecified),1150
7,COc1ccc2c(NN=Cc3ccc([N+](=O)[O-])cc3)ccnc2c1,340
8,O=C(Nc1ccc(-c2cccc(-c3nc4ccc(C(F)(F)F)cc4[nH]3)c2)cc1)c1cccnc1,720
9,Cn1ccnc1CNC(=O)c1ccc(-c2ccc(-c3nc4ccc(C(F)(F)F)cc4[nH]3)s2)cc1,700
10,O=[N+]([O-])c1ccc(-n2nc(-c3cccnc3)n(Cc3ccco3)c2=S)c(Cl)c1,200
11,CCNc1cc(C)nc(Nc2ccc(NS(=O)(=O)c3cc(OC)ccc3OC)cc2)n1,850
12,Cc1cc(NC(=O)c2ccco2)ccc1OC1CCN(Cc2ccc(F)cc2)CC1,590
13,Cc1ccc(NC(=O)N2CCCN(CCCCCNC(=O)/C=C/c3ccc(Cl)c(Cl)c3)CC2)cc1,760
14,O=C(NCC1CCC(CNCCCc2ccccc2)CC1)c1cc(Cl)cc(Cl)c1 (stereo unspecified),850
15,CN1CCN(CCCCNc2c3ccccc3nc3ccccc23)CC1,700
16,N#CNC(=NCCCSc1csc(N=C(N)N)n1)NCCCCCCCCN=C(NC#N)NCCSCc1csc(N=C(N)N)n1,840
17,CC[C@H]1CN2CC[C@H]1C[C@@H]2[C@@H](O)c1cc(Cl)nc2ccc(OC)cc12,60
18,CS(=O)(=O)c1ccc(CNCc2cccc(-c3cccc(-c4nc5ccc(F)cc5[nH]4)c3)c2)cc1,560
19,CCOc1cc(C(=O)NC2CC(C)(C)N(C)C(C)(C)C2)ccc1-c1nc2cc(Cl)c(Cl)cc2[nH]1,860
20,Cc1cc(NN=Cc2ccc([N+](=O)[O-])cc2)c2ccc(F)cc2n1,890
21,CN(C)C(=S)N=Nc1c(O)[nH]c2ccc(OC(F)(F)F)cc12,1020
22,Cn1c(C2C[C@H]3CC[C@H](C2)N3CC2CCC(NC(=O)/C=C/c3ccc(Cl)c(Cl)c3)CC2)nc2ccccc21 (stereo partly specified),560
23,O=C(Nc1ccc(C(=O)N2CCN(CCN3CCN(c4cccc(C(F)(F)F)c4)CC3)CC2)cc1)c1ccc(OC(F)(F)F)cc1,690
24,CCCn1c(Sc2ccc(C#N)c([N+](=O)[O-])c2)nnc1-c1cc(OC)cc(OC)c1,720

row,SMILES,IC50 [nM]
1,C[C@@H]1CN(c2cnn(Cc3cccc(NC(=O)Nc4cccc(C(F)(F)F)c4)c3)c(=O)c2Cl)C[C@H](C)N1,820
2,CCn1c(-c2nonc2N)nc2c(-c3cccc(NC(=O)Nc4cccc(C(F)(F)F)c4)c3)ncc(OCCCN)c21,970
3,N[C@@H](CCNC1CCN(c2cccc(C(F)(F)F)c2)CC1)Cc1ccc(F)c(F)c1,1290
4,Cc1ccc(NC(=O)c2ccc(CN3CCCN(Cc4cccc(O)c4)CC3)cc2)cc1F,590
5,NC1=NC(c2ccccc2)(c2ccccc2)C(=O)N1CC=Cc1ccccc1,600
6,COc1ccc(O)c(C(=O)c2cc(C#N)c(=O)n(-c3ccc(Oc4ccccc4)cc3)c2)c1,740
7,C=CCc1c(C(=O)NCC23CC4CC(CC(C4)C2)C3)[nH]c2ccccc2c1=O,1030
8,CC1CN(Cc2cccc(F)c2)CCN1c1ccc(NC(=O)c2cccs2)cc1 (stereo unspecified),450
9,Oc1ccc(CCCNc2nc(NCc3cccc4ccccc34)nc(N3CCCNCC3)n2)cc1,990
10,CCc1c(C)nc(-n2nc(C)cc2NC(=O)C2c3ccccc3Oc3ccccc32)[nH]c1=O,950
11,CC(=O)Nc1ccc(S(=O)(=O)Nc2ccc(Nc3nc(C)cc(N(C)C)n3)cc2)cc1,1160
12,N#Cc1ccccc1C(=O)N(Cc1cncn1Cc1cccc(F)c1)CC1CC1,730
13,CCN(CC)CCNc1ccnc2c3ccccc3n(C)c12,240
14,O=C(Nc1ccc(Cl)cc1)c1cccc(CN2CCCN(Cc3cccc(O)c3)CC2)c1,960
15,Cc1ccc(Oc2ccccc2NC(=O)CCc2nc3ccccc3c(=O)[nH]2)cc1,830
16,Fc1ccc2c(NN=Cc3ccc(Cl)cc3)ccnc2c1,750
17,O=C(Nc1ccc(Cl)cc1)Nc1ccc(Cn2ncc(N3CCCNCC3)c(Cl)c2=O)cc1,780
18,Cc1ccc(Nc2nccc(NCC(O)c3cccc(F)c3)n2)cc1 (stereo unspecified),670
19,COc1ccc(-c2ccc(S(=O)(=O)Nc3cc4c(cc3OC(C)C)CCN(C)CC4)cc2)cc1,690
20,COc1ccc2nccc([C@@H](O)CN3CCC(NC(=O)c4cc5ccccc5[nH]4)CC3)c2c1,970
21,CC(=O)COc1c(C2CCN(CCCCNC(=O)c3ccc(-c4ccc(C(F)(F)F)cc4)cc3)CC2)ccc2c1CCCC2,780
22,CS(=O)(=O)c1ccc(CNCc2ccc(-c3ccc(-c4nc5ccc(C(F)(F)F)cc5[nH]4)s3)cc2)cc1,160
23,CCc1ccc(NC(=O)N(CCCN2CCN(C)CC2)Cc2csc(-c3ccc(CNCc4ccccc4)cc3)n2)cc1,1010
